Test results from US8859584B2, “TRPV1 antagonists” (AbbVie Inc., priority 2011, dated 2014).

Tests used:
human TRPV1 [1] = molecular target: T1, human TRPV1 (Homo sapiens, UniProt Q8NER1); assay: Capsaicin Activation Assay (FLIPR intracellular Ca2+, recombinant HEK293 cells); assay type: cell-based; conditions: recombinant HEK293 cells expressing hTRPV1; 50 nM capsaicin; read-out: human TRPV1 capsaicin IC50
T1 construct: expressed in transfected cells

human TRPV1 [2] = molecular target: T1, human TRPV1; assay: Acid Activation Assay (pH 5.0, FLIPR intracellular Ca2+, recombinant HEK293 cells); assay type: cell-based; conditions: percentage of maximal pH 5.0-induced response remaining; HEK293 hTRPV1; max concentration 37.5 μM
Method in brief: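 HEK293 cells stably expressing recombinant hTRPV1 were loaded with calcium dye for 90-120 min at 25° C and pre-treated with compound for 3 min before a pH 5.0 (DPBS/MES) challenge. Peak FLIPR fluorescence over baseline is given as percentage of the maximal pH 5.0-induced response.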

T1 sequence (Q8NER1 whole entry): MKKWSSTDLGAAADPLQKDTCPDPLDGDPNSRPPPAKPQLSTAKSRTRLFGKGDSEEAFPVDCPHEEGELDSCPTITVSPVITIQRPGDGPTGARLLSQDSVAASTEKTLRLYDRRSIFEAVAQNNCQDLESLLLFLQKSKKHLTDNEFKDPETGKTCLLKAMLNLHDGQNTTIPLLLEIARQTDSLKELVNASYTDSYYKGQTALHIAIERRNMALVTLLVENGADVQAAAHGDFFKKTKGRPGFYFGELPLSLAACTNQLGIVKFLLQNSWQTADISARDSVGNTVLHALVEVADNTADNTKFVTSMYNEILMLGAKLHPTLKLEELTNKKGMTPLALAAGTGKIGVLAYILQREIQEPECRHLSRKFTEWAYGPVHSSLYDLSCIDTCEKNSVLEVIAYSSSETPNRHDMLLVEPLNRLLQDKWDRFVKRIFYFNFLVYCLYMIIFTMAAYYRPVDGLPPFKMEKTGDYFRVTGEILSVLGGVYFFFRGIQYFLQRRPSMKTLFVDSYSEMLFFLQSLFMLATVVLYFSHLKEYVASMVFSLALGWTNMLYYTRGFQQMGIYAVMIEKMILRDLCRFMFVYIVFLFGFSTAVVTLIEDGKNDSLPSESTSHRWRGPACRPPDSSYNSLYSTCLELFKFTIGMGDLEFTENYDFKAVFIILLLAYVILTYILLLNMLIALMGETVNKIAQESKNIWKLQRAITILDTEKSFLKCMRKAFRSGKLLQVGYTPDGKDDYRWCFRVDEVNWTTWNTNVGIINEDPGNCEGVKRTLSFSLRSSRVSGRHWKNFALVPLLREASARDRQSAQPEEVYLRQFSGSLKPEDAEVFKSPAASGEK

Structure (SMILES): CCC1(CC)C[C@@H](NC(=O)Nc2cccc3c2C[C@H](O)C3)c2ccc(Cl)c(Cl)c2O1 [Example 55, 1-[(4R)-7,8-dichloro-2,2-diethyl-3,4-dihydro-2H-chromen-4-yl]-3-[(2R)-2-hydroxy-2,3-dihydro-1H-inden-4-yl]urea]
- IC50 (human TRPV1 [1]): 240 nM
- human TRPV1 H+ (max % remain) (human TRPV1 [2]): 72%

Structure (SMILES): O=C(Nc1ccc(F)c2c1C[C@H](O)C2)N[C@@H]1CC(CF)(CF)Oc2ccccc21 [Example 151, 1-[(4R)-2,2-bis(fluoromethyl)-3,4-dihydro-2H-chromen-4-yl]-3-[(2S)-7-fluoro-2-hydroxy-2,3-dihydro-1H-inden-4-yl]urea]
- IC50 (human TRPV1 [1]): 6600 nM
- human TRPV1 H+ (max % remain) (human TRPV1 [2]): 6%

Structure (SMILES): O=C(Nc1cccc2c1C[C@H](O)C2)NC1COc2cc(Cl)ccc2C1 (stereo partly drawn) [Example 99, 1-(7-chloro-3,4-dihydro-2H-chromen-3-yl)-3-[(2R)-2-hydroxy-2,3-dihydro-1H-inden-4-yl]urea]
- IC50 (human TRPV1 [1]): 570 nM
- human TRPV1 H+ (max % remain) (human TRPV1 [2]): 75%

Structure (SMILES): CC1(C)C[C@@H](NC(=O)Nc2cccc3c2C[C@H](O)C3)c2cccc(F)c2O1 [Example 46, 1-[(4R)-8-fluoro-2,2-dimethyl-3,4-dihydro-2H-chromen-4-yl]-3-[(2R)-2-hydroxy-2,3-dihydro-1H-inden-4-yl]urea]
- IC50 (human TRPV1 [1]): 430 nM
- human TRPV1 H+ (max % remain) (human TRPV1 [2]): 87%

Structure (SMILES): CC1(C)C[C@@H](NC(=O)Nc2ccc(F)c3c2C[C@@H](O)C3)c2ccccc2O1 [Example 164, 1-[(4R)-2,2-dimethyl-3,4-dihydro-2H-chromen-4-yl]-3-[(2R)-7-fluoro-2-hydroxy-2,3-dihydro-1H-inden-4-yl]urea]
- IC50 (human TRPV1 [1]): 1500 nM
- human TRPV1 H+ (max % remain) (human TRPV1 [2]): 61%

Structure (SMILES): CC1(C)C[C@@H](NC(=O)Nc2cccc3c2C[C@@H](O)C3)c2ccc(Cl)c(F)c2O1 [Example 35, 1-[(4R)-7-chloro-8-fluoro-2,2-dimethyl-3,4-dihydro-2H-chromen-4-yl]-3-[(2S)-2-hydroxy-2,3-dihydro-1H-inden-4-yl]urea]
- IC50 (human TRPV1 [1]): 11 nM
- human TRPV1 H+ (max % remain) (human TRPV1 [2]): 14%

Structure (SMILES): C[C@]1(CF)C[C@@H](NC(=O)Nc2c(F)ccc3c2CC(O)C3)c2ccc(Cl)cc2O1 (stereo partly drawn) [Example 25, 1-[(2R,4R)-7-chloro-2-(fluoromethyl)-2-methyl-3,4-dihydro-2H-chromen-4-yl]-3-(5-fluoro-2-hydroxy-2,3-dihydro-1H-inden-4-yl)urea]
- IC50 (human TRPV1 [1]): 41 nM
- human TRPV1 H+ (max % remain) (human TRPV1 [2]): 30%

Structure (SMILES): O=C(Nc1ccc(F)c2c1C[C@@H](O)C2)N[C@@H]1CC2(CCC2)Oc2ccc(F)cc21 [Example 163, 1-[(4R)-6-fluoro-3,4-dihydrospiro[chromene-2,1′-cyclobutan]-4-yl]-3-[(2R)-7-fluoro-2-hydroxy-2,3-dihydro-1H-inden-4-yl]urea]
- IC50 (human TRPV1 [1]): 690 nM
- human TRPV1 H+ (max % remain) (human TRPV1 [2]): 38%

Structure (SMILES): O=C(Nc1cccc2c1CC(O)C2)NC1CC(c2ccccc2Cl)Oc2ccccc21 (centres unmarked) [Example 120, 1-[2-(2-chlorophenyl)-3,4-dihydro-2H-chromen-4-yl]-3-(2-hydroxy-2,3-dihydro-1H-inden-4-yl)urea]
- IC50 (human TRPV1 [1]): 1600 nM
- human TRPV1 H+ (max % remain) (human TRPV1 [2]): 51%

Structure (SMILES): CC1(C)C[C@@H](NC(=O)Nc2cccc3c2C[C@H](O)C3)c2ccccc21 [Example 63, 1-[(1R)-3,3-dimethyl-2,3-dihydro-1H-inden-1-yl]-3-[(2R)-2-hydroxy-2,3-dihydro-1H-inden-4-yl]urea]
- IC50 (human TRPV1 [1]): 140 nM
- human TRPV1 H+ (max % remain) (human TRPV1 [2]): 86%

Structure (SMILES): C[C@]1(C(F)F)C[C@@H](NC(=O)Nc2cccc3c2C[C@H](O)C3)c2ccccc2O1 [Example 127, 1-[(2R,4R)-2-(difluoromethyl)-2-methyl-3,4-dihydro-2H-chromen-4-yl]-3-[(2R)-2-hydroxy-2,3-dihydro-1H-inden-4-yl]urea]
- IC50 (human TRPV1 [1]): 260 nM
- human TRPV1 H+ (max % remain) (human TRPV1 [2]): 62%

Structure (SMILES): O=C(Nc1cccc2c1C[C@H](O)C2)N[C@@H]1CCOc2ccccc21 [Example 47, 1-[(4R)-3,4-dihydro-2H-chromen-4-yl]-3-[(2R)-2-hydroxy-2,3-dihydro-1H-inden-4-yl]urea]
- IC50 (human TRPV1 [1]): 4100 nM
- human TRPV1 H+ (max % remain) (human TRPV1 [2]): 81%

Structure (SMILES): O=C(Nc1cccc2c1C[C@H](O)C2)N[C@H]1CCOc2cc(OC(F)(F)F)ccc21 [Example 93, 1-[(2R)-2-hydroxy-2,3-dihydro-1H-inden-4-yl]-3-[(4S)-7-(trifluoromethoxy)-3,4-dihydro-2H-chromen-4-yl]urea]
- IC50 (human TRPV1 [1]): 41000 nM
- human TRPV1 H+ (max % remain) (human TRPV1 [2]): 57%

Structure (SMILES): O=C(Nc1cccc2c1C[C@H](O)C2)N[C@H]1CC2(CCC2)Oc2ccc(F)cc21 [Example 101, 1-[(4S)-6-fluoro-3,4-dihydrospiro[chromene-2,1′-cyclobutan]-4-yl]-3-[(2R)-2-hydroxy-2,3-dihydro-1H-inden-4-yl]urea]
- IC50 (human TRPV1 [1]): 1200 nM
- human TRPV1 H+ (max % remain) (human TRPV1 [2]): 90%

Structure (SMILES): O=C(Nc1cccc2c1C[C@H](O)C2)N[C@@H]1CCc2c1cccc2C(F)(F)F [Example 41, 1-[(2R)-2-hydroxy-2,3-dihydro-1H-inden-4-yl]-3-[(1R)-4-(trifluoromethyl)-2,3-dihydro-1H-inden-1-yl]urea]
- IC50 (human TRPV1 [1]): 13 nM
- human TRPV1 H+ (max % remain) (human TRPV1 [2]): 56%

Structure (SMILES): CC1(C)C[C@@H](NC(=O)Nc2cccc3c2C[C@H](O)C3)c2ccccc2O1 [Example 17, 1-[(4R)-2,2-dimethyl-3,4-dihydro-2H-chromen-4-yl]-3-[(2R)-2-hydroxy-2,3-dihydro-1H-inden-4-yl]urea]
- IC50 (human TRPV1 [1]): 240 nM
- human TRPV1 H+ (max % remain) (human TRPV1 [2]): 82%

Structure (SMILES): O=C(Nc1cccc2c1C[C@H](O)C2)N[C@@H]1CCOc2c(OC(F)(F)F)cccc21 [Example 6, 1-[(2R)-2-hydroxy-2,3-dihydro-1H-inden-4-yl]-3-[(4R)-8-(trifluoromethoxy)-3,4-dihydro-2H-chromen-4-yl]urea]
- IC50 (human TRPV1 [1]): 16 nM
- human TRPV1 H+ (max % remain) (human TRPV1 [2]): 67%

Structure (SMILES): CC1(C)C[C@@H](NC(=O)Nc2ccc(F)c3c2C[C@@H](O)C3)c2ccc(C(F)(F)F)cc2O1 [Example 160, 1-[(4R)-2,2-dimethyl-7-(trifluoromethyl)-3,4-dihydro-2H-chromen-4-yl]-3-[(2R)-7-fluoro-2-hydroxy-2,3-dihydro-1H-inden-4-yl]urea]
- IC50 (human TRPV1 [1]): 130 nM
- human TRPV1 H+ (max % remain) (human TRPV1 [2]): 61%

Structure (SMILES): O=C(Nc1cccc2c1CC(O)C2)NC1CC2(CCCCC2)Oc2ccccc21 (centres unmarked) [Example 123, 1-(3,4-dihydrospiro[chromene-2,1′-cyclohexan]-4-yl)-3-(2-hydroxy-2,3-dihydro-1H-inden-4-yl)urea]
- IC50 (human TRPV1 [1]): 140 nM
- human TRPV1 H+ (max % remain) (human TRPV1 [2]): 61%

Structure (SMILES): O=C(Nc1ccc(F)c2c1C[C@@H](O)C2)N[C@@H]1CC(CF)(CF)Oc2c(F)cc(F)cc21 [Example 162, 1-[(4R)-6,8-difluoro-2,2-bis(fluoromethyl)-3,4-dihydro-2H-chromen-4-yl]-3-[(2R)-7-fluoro-2-hydroxy-2,3-dihydro-1H-inden-4-yl]urea]
- IC50 (human TRPV1 [1]): 3400 nM
- human TRPV1 H+ (max % remain) (human TRPV1 [2]): 50%

Structure (SMILES): CC1(C)C[C@@H](NC(=O)Nc2cccc3c2C[C@@H](O)C3)c2cc(F)ccc2O1 [Example 83, 1-[(4R)-6-fluoro-2,2-dimethyl-3,4-dihydro-2H-chromen-4-yl]-3-[(2S)-2-hydroxy-2,3-dihydro-1H-inden-4-yl]urea]
- IC50 (human TRPV1 [1]): 790 nM
- human TRPV1 H+ (max % remain) (human TRPV1 [2]): 27%

Structure (SMILES): O=C(Nc1cccc2c1C[C@@H](O)C2)N[C@@H]1CC(CF)(CF)Oc2c(F)cc(F)cc21 [Example 79, 1-[(4R)-6,8-difluoro-2,2-bis(fluoromethyl)-3,4-dihydro-2H-chromen-4-yl]-3-[(2S)-2-hydroxy-2,3-dihydro-1H-inden-4-yl]urea]
- IC50 (human TRPV1 [1]): 710 nM
- human TRPV1 H+ (max % remain) (human TRPV1 [2]): 15%
